Measurements from patent US20210322508A1, “PEPTIDES AND COMPOSITIONS FOR TARGETED TREATMENT AND IMAGING” (SIGNABLOK, INC., priority 2018, published 2021).
Residues, ends and D or L forms follow the SMILES beside them.

What was measured:
[1] = test system: LPS-challenged mice; test: survival of LPS-challenged (septic shock) mice; type: in vivo; settings: vs vehicle
Description: FIG. 15B. **, P=0.001 to 0.01 as compared with vehicle-treated animals.

[2] = test system: DBA/1 mice with collagen-induced arthritis; test: Collagen-induced arthritis (CIA) model; settings: for CIA severity; bone and cartilage damage: 5 mg/kg i.p. daily 14 days, free peptides
Description: Animal studies were performed by Bolder BioPATH (Boulder, Colo., USA). CIA was induced in male 6- to 7-week-old DBA/1 mice by immunization with bovine type II collagen. Briefly, mice were injected intradermally with 100 μl of Freund's complete adjuvant containing 250 μg of bovine type II collagen (2 mg/ml final concentration) at the base of the tail on day 0 and again on day 21. On day 24, mice were randomized by body weight into treatment groups. […] Mice were weighed on study days 24, 26, 28, 30, 32, 34, 36 and 38 (prior to necropsy). Daily clinical scores were given on a scale of 0-5 for each of the paws on days 24-38. On day 38, mice were killed for necropsy.
At the end of study, fore paws, hind paws and knees were harvested, fixed in 10% neutral buffered formalin for 1-2 days, and then decalcified in 5% formic acid for 4-5 days before standard processing for paraffin embedding. Sections (8 μm) were cut and stained with toluidine blue (T blue). Hind paws, fore paws and knees were embedded and sectioned in the frontal plane. Six joints from each animal were processed for histopathological evaluation. The joints were then assessed using 0-5 scale for inflammation, pannus formation, cartilage damage, bone resorption and periosteal new bone formation. A summed histopathology score (sum of five parameters, 0-25 scale) was also determined.
Animal studies were performed by Bolder BioPATH (Boulder, Colo., USA). CIA was induced in male 6- to 7-week-old DBA/1 mice by immunization with bovine type II collagen. Briefly, mice were injected intradermally with 100 μl of Freund's complete adjuvant containing 250 μg of bovine type II collagen (2 mg/ml final concentration) at the base of the tail on day 0 and again on day 21. On day 24, mice were randomized by body weight into treatment groups. […] Starting day 24, mice were injected i.p. intraperitoneally daily for 14 consecutive days with 5 mg/kg G-KV21, G-HV21, G-TE21, M-TK32 and M-VE32 or with PBS (vehicle). Mice were weighed on study days 24, 26, 28, 30, 32, 34, 36 and 38 (prior to necropsy). Daily clinical scores were given on a scale of 0-5 for each of the paws on days 24-38. On day 38, mice were killed for necropsy.

[3] = Mouse tolerability studies; type: in vivo; settings: female, C57BL/6, mouse, in vivo, ip
Description: Naïve, female C57BL/6 mice at 8 to 10 weeks of age (18 to 21 g) from the Jackson Laboratory were used. […] Clinical observations and body weights were made twice daily.
Naïve, female C57BL/6 mice at 8 to 10 weeks of age (18 to 21 g) from the Jackson Laboratory were used. Animals were randomly grouped (5 mice per group) and i.p. injected with 400 mg/kg G-HV21, G-KV21 or G-TE21. Clinical observations and body weights were made twice daily.

[4] = test system: H292 and A549 xenografts; settings: for tumor growth: free peptides i.p. at indicated doses
Description: Animal efficacy studies were performed using female 6-8 week old NU/J mice from the Jackson Laboratory (Bar Harbor, Me.). Animals were handled as specified in the USDA Animal Welfare Act (9 CFR, Parts 1, 2, and 3) and as described in the Guide for the Care and Use of Laboratory Animals from the National Research Council. Human lung carcinoma cell lines H292 and A549 were obtained from ATCC. Tumor cells in culture were harvested and resuspended in a 1:1 ratio of RPMI 1640 and Matrigel (BD Biosciences, San Jose, Calif.). NSCLC xenografts were established by injecting subcutaneously into the right flanks 5×10^6 viable cells per mouse. Tumor volumes were calculated with caliper measurements using the formula V=π/6 (length×width×width). […] All tested formulations were intraperitoneally (i.p.) injected at indicated doses and administration schedule. Clinical observations, body weights and tumor volume measurements were made 3 times weekly. Tumor volumes were analyzed using repeated measures ANOVA followed by Bonferroni test. Data points were represented as mean tumor volume±SEM. Antitumor effects were expressed as the percentage of T/C (treated versus control), dividing the tumor volumes from treatment groups with the control groups and multiplied by 100. According to the National Cancer Institute (NCI) standards (see e.g., Johnson, et al. Br J Cancer 2001, 84:1424-1431), a % T/C≤42 is indicative of antitumor activity. At the end of the experiment, the animals were sacrificed and the tumors were excised and weighed.

[5] = test system: mouse lipoproteins; test: ultracentrifugation of mouse serum with added rho B-labeled peptides; settings: for behaviour on ultracentrifugation of delipoproteinized mouse serum: rho B-labeled peptide added to delipoproteinized mouse serum; for behaviour on ultracentrifugation of whole mouse serum: rho B-labeled peptide added to whole mouse serum
[6] = test system: mice with collagen-induced arthritis (CIA); test: collagen-induced arthritis (CIA) in mice; settings: for tolerability in arthritic mice (body weight changes) / arthritis (clinical arthritis score): CIA mice; for tolerability in arthritic mice (body weight changes): day 24 to day 38; for arthritis (clinical arthritis score): treatment days 24-38
Description: As described herein, starting on day 24 after immunization, mice with CIA were intraperitoneally (i.p.) administered daily for 14 consecutive days with vehicle (black diamonds), dexamethasone (black squares), GF9 (white circles), GF9-LPC (black circles) and GA/E31-LPC (half black half white circles) at indicated doses. Daily clinical scores were given on a scale of 0-5 for each of the paws on days 24-38. On day 38, mice were killed and the histopathological examination of mouse joints was performed. Histopathological scores of inflammation (I), pannus (P), cartilage damage (CD), bone resorption (BR) and periosteal new bone formation (PBF) are shown. Summed histopathology scores were calculated as the sum of all five histopathological parameters. All results are expressed as the mean±SEM (n=10 mice per group).
Mouse body weight (BW) was measured every other day from day 24 to day 38. Mean BW changes were calculated as a percentage of the difference between beginning (day 24) and final (day 38) BWs of the CIA mice intraperitoneally (i.p.) treated daily for 14 consecutive days with vehicle, dexamethasone, GF9, GF9-LPC and GA/E31-LPC at indicated doses. All results are expressed as the mean±SEM (n=10 mice per group).
Plasma was collected on days 24, 30 and 38 from arthritic mice treated with vehicle (black diamonds), GF9 (white circles), GF9-LPC (black circles) and GA/E31-LPC (half black half white circles). Plasma samples were analyzed for concentrations of interleukin-1b (IL-1b), IL-6, and colony-stimulating factor 1 (CSF1). Results are expressed as the mean±SEM (n=5 mice per group).

[7] = tolerability in healthy mice (body weight); type: in vivo
Description: As described herein, healthy C57BL/6 mice were intraperitoneally (i.p.) administered daily for 7 consecutive days with GF9 at indicated doses Mouse body weight (BW) was measured daily.

[8] = 400 mg/kg, free form, healthy mice
[9] = healthy C57BL/6 mice, average weights

| SMILES | survival of LPS-challenged mice [1] | CIA severity; bone and cartilage damage [2] | MTD [3, 8] [mg/kg] | tumor growth [4] | behaviour on ultracentrifugation of delipoproteinized mouse serum [5] | behaviour on ultracentrifugation of whole mouse serum [5] | tolerability in arthritic mice (body weight changes) [6] | arthritis (clinical arthritis score) [6] | toxicity in healthy mice [7, 9] | toxicity / tolerability in arthritic mice ([2]; mouse, in vivo, ip) | MTD [3] [mg/kg] | toxicity / tolerability in cancer mice ([4]; in vivo) | penetration of the synovial membrane ([6]; mouse, in vivo) | MTD at 168 h ([7]; C57BL/6, mouse, in vivo, ip) [mg/kg] | dose tolerated by healthy mice ([7]; healthy mice, GF9 i.p. daily for 7 consecutive days) | toxicity in healthy mice ([7]; mouse, in vivo) |
| --- | --- | --- | --- | --- | --- | --- | --- | --- | --- | --- | --- | --- | --- | --- | --- | --- |
| CC(C)C[C@H](NC(=O)[C@H](Cc1ccccc1)NC(=O)CN)C(=O)N[C@@H](CO)C(=O)N[C@@H](CCCCN)C(=O)N[C@@H](CO)C(=O)N[C@@H](CC(C)C)C(=O)N[C@H](C(=O)N[C@@H](Cc1ccccc1)C(=O)NCC(=O)N[C@@H](CCC(=O)O)C(=O)N[C@@H](CCC(=O)O)C(=O)N[C@@H](CC[S+](C)[O-])C(=O)N[C@@H](CCCNC(=N)N)C(=O)N[C@@H](CC(=O)O)C(=O)N[C@@H](CCCNC(=N)N)C(=O)N[C@@H](C)C(=O)N[C@@H](CCCNC(=N)N)C(=O)N[C@@H](C)C(=O)N[C@@H](Cc1c[nH]cn1)C(=O)N[C@H](C(=O)O)C(C)C)C(C)C (some centres unmarked) [G-HV21] (HELM PEPTIDE1{G.F.L.S.K.S.L.V.F.G.E.E.[CS(=O)CC[C@H](N[*:1])C(=O)[*:2]].R.D.R.A.R.A.H.V}$$$$V2.0) | significantly improve survival | ameliorate CIA and protect against bone and cartilage damage | ≥ 400 | inhibit tumor growth in two human NSCLC xenograft mouse models | sedimentate with serum proteins | floatation of these peptides with mouse lipoproteins | well-tolerated by arthritic mice | ameliorate the disease | No toxicity was observed | – | – | – | – | – | – | – |
| CC(C)C[C@H](NC(=O)[C@H](Cc1ccccc1)NC(=O)CN)C(=O)N[C@@H](CO)C(=O)N[C@@H](CCCCN)C(=O)N[C@@H](CO)C(=O)N[C@@H](CC(C)C)C(=O)N[C@H](C(=O)N[C@@H](Cc1ccccc1)C(=O)N[C@@H](Cc1c[nH]c2ccccc12)C(=O)N[C@@H](CCC(N)=O)C(=O)N[C@@H](CCC(=O)O)C(=O)N[C@@H](CCC(=O)O)C(=O)N[C@@H](CC[S+](C)[O-])C(=O)N[C@@H](CCC(=O)O)C(=O)N[C@@H](CC(C)C)C(=O)N[C@@H](Cc1ccc(O)cc1)C(=O)N[C@@H](CCCNC(=N)N)C(=O)N[C@@H](CCC(N)=O)C(=O)N[C@@H](CCCCN)C(=O)N[C@H](C(=O)O)C(C)C)C(C)C (some centres unmarked) [G-KV21] (HELM PEPTIDE1{G.F.L.S.K.S.L.V.F.W.Q.E.E.[CS(=O)CC[C@H](N[*:1])C(=O)[*:2]].E.L.Y.R.Q.K.V}$$$$V2.0) | significantly improve survival | ameliorate CIA and protect against bone and cartilage damage | ≥ 400 | inhibit tumor growth in two human NSCLC xenograft mouse models | sedimentate with serum proteins | floatation of these peptides with mouse lipoproteins | well-tolerated by arthritic mice | ameliorate the disease | No toxicity was observed | – | – | – | – | – | – | – |
| CC(C)C[C@H](NC(=O)[C@H](Cc1ccccc1)NC(=O)CN)C(=O)N[C@@H](CO)C(=O)N[C@@H](CCCCN)C(=O)N[C@@H](CO)C(=O)N[C@@H](CC(C)C)C(=O)N[C@H](C(=O)N[C@@H](Cc1ccccc1)C(=O)O)C(C)C [GF9] (H-GFLSKSLVF-OH) | – | – | – | – | – | sedimentate with serum proteins | – | – | – | non-toxic and well-tolerable by arthritic mice | ≥ 300 | non-toxic and well-tolerable by cancer mice | penetrate the synovial membrane | ≥ 300 | up to 300 mg/kg | non-toxic |
